The target in the experiment is Cav2.3 (Homo sapiens, UniProt Q15878). The experiment is described as follows: Human Cav2.3 channel calcium-influx assay. To be noted: Fluo8 fluorescence, HEK-293 T-Rex/Kir2.1/Cav2.3e cells, without pluronic acid, read-out: Cav2.3 (pIC50) (converted). It is filed as cell-based. The method in brief:
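HEK-293 T-Rex/Kir2.1 cells with doxycycline (0.2 μg/mL)-inducible Cav2.3e plus Cavβ4-α2δ1, loaded with Fluo8 NW in 0 mM K+ Tyrode's. Compounds (8 points, top 30 μM, half-log, 0.3% final DMSO, n=4) preincubated 3 min at RT, then depolarized with 20 mM KCl/2 mM CaCl2 (final); fluorescence read 130 s.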
Cav2.3, sequence (Q15878 whole entry, looked up): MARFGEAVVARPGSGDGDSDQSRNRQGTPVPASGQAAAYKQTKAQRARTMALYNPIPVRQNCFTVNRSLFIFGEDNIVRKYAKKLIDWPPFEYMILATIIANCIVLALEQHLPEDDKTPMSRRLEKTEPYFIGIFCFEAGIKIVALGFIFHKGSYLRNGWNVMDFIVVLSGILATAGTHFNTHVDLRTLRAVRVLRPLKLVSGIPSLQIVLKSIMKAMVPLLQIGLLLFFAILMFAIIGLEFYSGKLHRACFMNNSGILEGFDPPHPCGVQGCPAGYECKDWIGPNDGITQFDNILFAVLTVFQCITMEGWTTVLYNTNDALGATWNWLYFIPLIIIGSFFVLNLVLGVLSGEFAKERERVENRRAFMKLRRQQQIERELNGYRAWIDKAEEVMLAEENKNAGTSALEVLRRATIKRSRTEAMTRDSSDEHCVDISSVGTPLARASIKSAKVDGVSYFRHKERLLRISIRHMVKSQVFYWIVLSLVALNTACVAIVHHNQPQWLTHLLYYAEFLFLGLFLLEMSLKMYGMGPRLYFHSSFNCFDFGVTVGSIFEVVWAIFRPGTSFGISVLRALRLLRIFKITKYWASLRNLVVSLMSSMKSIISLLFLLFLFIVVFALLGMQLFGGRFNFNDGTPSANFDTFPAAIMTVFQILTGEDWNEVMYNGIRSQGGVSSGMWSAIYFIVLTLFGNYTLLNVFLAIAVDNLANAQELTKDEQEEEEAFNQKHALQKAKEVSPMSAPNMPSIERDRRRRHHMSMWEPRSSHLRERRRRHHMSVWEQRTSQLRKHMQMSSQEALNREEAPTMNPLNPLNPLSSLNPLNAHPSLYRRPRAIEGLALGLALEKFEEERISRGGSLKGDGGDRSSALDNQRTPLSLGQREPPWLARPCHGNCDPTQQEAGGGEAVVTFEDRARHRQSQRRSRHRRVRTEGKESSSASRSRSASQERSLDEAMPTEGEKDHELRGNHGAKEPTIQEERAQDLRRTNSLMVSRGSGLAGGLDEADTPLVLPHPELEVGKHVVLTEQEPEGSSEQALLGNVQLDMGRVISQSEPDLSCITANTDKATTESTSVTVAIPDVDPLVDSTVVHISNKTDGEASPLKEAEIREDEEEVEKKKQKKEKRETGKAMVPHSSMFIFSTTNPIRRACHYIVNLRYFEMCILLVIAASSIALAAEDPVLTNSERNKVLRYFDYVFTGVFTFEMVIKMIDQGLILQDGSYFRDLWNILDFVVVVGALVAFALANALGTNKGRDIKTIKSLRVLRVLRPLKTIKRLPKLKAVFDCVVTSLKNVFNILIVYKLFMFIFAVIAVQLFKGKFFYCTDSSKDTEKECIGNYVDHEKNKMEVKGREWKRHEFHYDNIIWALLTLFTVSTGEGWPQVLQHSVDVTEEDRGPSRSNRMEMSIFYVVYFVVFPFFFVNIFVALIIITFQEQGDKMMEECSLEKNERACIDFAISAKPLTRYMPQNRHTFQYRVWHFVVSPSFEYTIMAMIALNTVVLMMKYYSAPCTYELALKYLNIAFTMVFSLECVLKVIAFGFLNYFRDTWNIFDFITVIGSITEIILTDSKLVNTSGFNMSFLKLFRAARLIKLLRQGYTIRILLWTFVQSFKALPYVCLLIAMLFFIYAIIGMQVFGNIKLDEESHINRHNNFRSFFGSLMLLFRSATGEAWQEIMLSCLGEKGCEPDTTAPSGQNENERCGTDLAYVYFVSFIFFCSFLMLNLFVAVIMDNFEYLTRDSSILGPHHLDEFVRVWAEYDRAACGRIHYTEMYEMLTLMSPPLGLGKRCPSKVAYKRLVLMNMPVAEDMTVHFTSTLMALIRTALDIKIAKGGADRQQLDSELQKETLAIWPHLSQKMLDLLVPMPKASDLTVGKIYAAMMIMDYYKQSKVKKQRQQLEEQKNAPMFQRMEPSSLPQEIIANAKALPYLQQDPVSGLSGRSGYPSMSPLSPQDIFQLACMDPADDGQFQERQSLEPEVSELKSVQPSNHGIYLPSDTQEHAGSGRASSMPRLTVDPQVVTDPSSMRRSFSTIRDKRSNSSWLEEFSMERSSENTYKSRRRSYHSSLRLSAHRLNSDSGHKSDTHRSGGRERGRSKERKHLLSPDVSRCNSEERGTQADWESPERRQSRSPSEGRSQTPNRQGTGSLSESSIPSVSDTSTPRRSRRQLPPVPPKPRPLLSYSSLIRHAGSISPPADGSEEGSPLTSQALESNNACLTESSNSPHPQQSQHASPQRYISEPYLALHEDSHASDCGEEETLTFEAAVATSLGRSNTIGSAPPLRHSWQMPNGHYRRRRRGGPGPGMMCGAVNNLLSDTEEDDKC
For the compound `COc1ccc([C@@H](N(C)S(=O)(=O)c2cn3ccncc3n2)C(F)(F)F)cc1` [Example 196, (R)—N-methyl-N-(2,2,2-trifluoro-1-(4-methoxyphenyl)ethyl)imidazo[1,2-a]pyrazine-2-sulfonamide], the IC50 is 9330 nM.

As for `Cc1ccc([C@@H](N(C)S(=O)(=O)c2cn3ccncc3n2)C(F)(F)F)cc1` [Example 197, (R)—N-methyl-N-(2,2,2-trifluoro-1-(p-tolyl)ethyl)imidazo[1,2-a]pyrazine-2-sulfonamide], the IC50 was 6170 nM.

`CCN([C@H](c1ccc(F)cc1)C(F)(F)F)S(=O)(=O)c1cn2ccnc2cn1` [Example 198, (R)—N-ethyl-N-(2,2,2-trifluoro-1-(4-fluorophenyl)ethyl)imidazo[1,2-a]pyrazine-6-sulfonamide]: the IC50 is 324 nM.

As to `CN([C@H](c1ccc(Cl)cc1)C(F)(F)F)S(=O)(=O)c1cn2ccnc2cn1` [Example 199, (R)—N-(1-(4-chlorophenyl)-2,2,2-trifluoroethyl)-N-methylimidazo[1,2-a]pyrazine-6-sulfonamide], the IC50 was 1150 nM.

Regarding `CN([C@H](c1ccc(Cl)cc1)C(F)(F)F)S(=O)(=O)c1cnc2ncsc2c1` [Example 200, (R)—N-(1-(4-chlorophenyl)-2,2,2-trifluoroethyl)-N-methylthiazolo[4,5-b]pyridine-6-sulfonamide], the IC50 was 282 nM.

`CN([C@H](c1ccc(Cl)cc1)C(F)(F)F)S(=O)(=O)c1cnc2ccnn2c1` [Example 201, (R)—N-(1-(4-chlorophenyl)-2,2,2-trifluoroethyl)-N-methylpyrazolo[1,5-a]pyrimidine-6-sulfonamide]: the IC50 is 427 nM.

Regarding `CN([C@H](c1ccc(Cl)cc1)C(F)(F)F)S(=O)(=O)c1ccn2nncc2c1` [Example 202, (R)—N-(1-(4-chlorophenyl)-2,2,2-trifluoroethyl)-N-methyl-[1,2,3]triazolo[1,5-a]pyridine-5-sulfonamide], the IC50 is 288 nM.

On to `COc1ccc([C@@H](N(C)S(=O)(=O)c2ccc3nccn3c2)C(F)(F)F)cc1` [Example 203, (R)—N-methyl-N-(2,2,2-trifluoro-1-(4-methoxyphenyl)ethyl)imidazo[1,2-a]pyridine-6-sulfonamide], for which the IC50 was 794 nM.

On to `CN([C@H](c1ccc(Cl)cc1)C(F)(F)F)S(=O)(=O)c1cc2nncn2cn1` [Example 204, (R)—N-(1-(4-chlorophenyl)-2,2,2-trifluoroethyl)-N-methyl-[1,2,4]triazolo[4,3-c]pyrimidine-7-sulfonamide], for which the IC50 was 759 nM.

For the compound `CN([C@H](c1ccc(Cl)cc1)C(F)(F)F)S(=O)(=O)c1ccc(O)nn1` [Example 208, (R)—N-(1-(4-chlorophenyl)-2,2,2-trifluoroethyl)-6-hydroxy-N-methylpyridazine-3-sulfonamide], the IC50 was 1050 nM.

With `CN([C@H](c1ccc(Cl)cc1)C(F)(F)F)S(=O)(=O)c1cccnn1` [Example 209, (R)—N-(1-(4-chlorophenyl)-2,2,2-trifluoroethyl)-N-methylpyridazine-3-sulfonamide], the IC50 is 191 nM.

Consider `COc1ccc([C@@H](N(C)S(=O)(=O)c2cncc(F)c2)C(F)(F)F)cc1` [Example 221, (R)-5-fluoro-N-methyl-N-(2,2,2-trifluoro-1-(4-methoxyphenyl)ethyl)pyridine-3-sulfonamide], for which the IC50 is 234 nM.

In the case of `Cc1ccc([C@@H](N(C)S(=O)(=O)c2cncc(F)c2)C(F)(F)F)cc1` [Example 222, (R)-5-fluoro-N-methyl-N-(2,2,2-trifluoro-1-(p-tolyl)ethyl)pyridine-3-sulfonamide], the IC50 was 245 nM.

For the compound `CN([C@H](c1ccc(F)cc1)C(F)(F)F)S(=O)(=O)c1cncc(F)c1` [Example 223, (R)-5-fluoro-N-methyl-N-(2,2,2-trifluoro-1-(4-fluorophenyl)ethyl)pyridine-3-sulfonamide], the IC50 was 145 nM.

For `Cc1ccc([C@@H](N(C)S(=O)(=O)c2cncc(C#N)c2)C(F)(F)F)cc1` [Example 225, (R)-5-cyano-N-methyl-N-(2,2,2-trifluoro-1-(p-tolyl)ethyl)pyridine-3-sulfonamide], the IC50 was 105 nM.

Turning to `[2H]C([2H])([2H])N([C@H](c1ccc(Cl)cc1)C(F)(F)F)S(=O)(=O)c1cncc(C#N)c1` [Example 227, (R)—N-(1-(4-chlorophenyl)-2,2,2-trifluoroethyl)-5-cyano-N-(methyl-d3)pyridine-3-sulfonamide], the IC50 is 28.2 nM.

For the compound `COc1cc(S(=O)(=O)N(C)[C@H](c2ccc(Cl)cc2)C(F)(F)F)c(OC)nn1` [Example 228, (R)—N-(1-(4-chlorophenyl)-2,2,2-trifluoroethyl)-3,6-dimethoxy-N-methylpyridazine-4-sulfonamide], the IC50 was 891 nM.

Turning to `CN([C@H](c1ccc(C(F)(F)F)cc1)C(F)(F)F)S(=O)(=O)c1cnc2ccccn12` [Example 235, (R)—N-methyl-N-(2,2,2-trifluoro-1-(4-(trifluoromethyl)phenyl)ethyl)imidazo[1,2-a]pyridine-3-sulfonamide], the IC50 was 31.6 nM.

With `CCN([C@H](c1ccc(C(F)(F)F)cc1)C(F)(F)F)S(=O)(=O)c1cnc2ccccn12` [Example 237, (R)—N-ethyl-N-(2,2,2-trifluoro-1-(4-(trifluoromethyl)phenyl)ethyl)imidazo[1,2-a]pyridine-3-sulfonamide], the IC50 was 30.2 nM.

In the case of `CN([C@H](c1ccc(OC(F)F)cc1)C(F)(F)F)S(=O)(=O)c1cncc(C#N)c1` [Example 240, (R)-5-cyano-N-(1-(4-(difluoromethoxy)phenyl)-2,2,2-trifluoroethyl)-N-methylpyridine-3-sulfonamide], the IC50 is 162 nM.

As for `CN([C@H](c1ccc(OC(F)(F)F)cc1)C(F)(F)F)S(=O)(=O)c1cncc(C#N)c1` [Example 241, (R)-5-cyano-N-methyl-N-(2,2,2-trifluoro-1-(4-(trifluoromethoxy)phenyl)ethyl)pyridine-3-sulfonamide], the IC50 is 105 nM.

For the compound `[2H][C@@](c1ccc(Cl)cc1)(N(C)S(=O)(=O)c1cncc(C#N)c1)C(F)(F)F` [Example 242, N-(1-(4-chlorophenyl)-2,2,2-trifluoroethyl-1-d)-5-cyano-N-methylpyridine-3-sulfonamide], the IC50 was 35.5 nM.

Consider `CCN([C@@H](c1ccc(OC)cc1)C(F)(F)F)S(=O)(=O)c1cncc(F)c1` [Example 256, (S)—N-ethyl-5-fluoro-N-(2,2,2-trifluoro-1-(4-methoxyphenyl)ethyl)pyridine-3-sulfonamide], for which the IC50 is 4270 nM.

Turning to `CCN([C@H](c1ccc(OC)cc1)C(F)(F)F)S(=O)(=O)c1cncc(F)c1` [Example 257, (R)—N-ethyl-5-fluoro-N-(2,2,2-trifluoro-1-(4-methoxyphenyl)ethyl)pyridine-3-sulfonamide], the IC50 was 22.9 nM.

On to `CCN([C@@H](c1ccc(F)cc1)C(F)(F)F)S(=O)(=O)c1cncc(F)c1` [Example 260, (S)—N-ethyl-5-fluoro-N-(2,2,2-trifluoro-1-(4-fluorophenyl)ethyl)pyridine-3-sulfonamide], for which the IC50 is 3550 nM.

On to `CCN([C@H](c1ccc(F)cc1)C(F)(F)F)S(=O)(=O)c1cncc(F)c1` [Example 261, (R)—N-ethyl-5-fluoro-N-(2,2,2-trifluoro-1-(4-fluorophenyl)ethyl)pyridine-3-sulfonamide], for which the IC50 was 11.7 nM.

As to `CCN([C@H](c1ccc(F)cc1)C(F)(F)F)S(=O)(=O)c1cnccn1` [Example 265, (R)—N-ethyl-N-(2,2,2-trifluoro-1-(4-fluorophenyl)ethyl)pyrazine-2-sulfonamide], the IC50 was 39.8 nM.

As for `CCN([C@H](c1ccc(C(F)(F)F)c(C)c1)C(F)(F)F)S(=O)(=O)c1cncc(C#N)c1` [Example 268, (R)-5-cyano-N-ethyl-N-(2,2,2-trifluoro-1-(3-methyl-4-(trifluoromethyl)phenyl)ethyl)pyridine-3-sulfonamide], the IC50 was 468 nM.

Turning to `Cc1cc([C@@H](N(C)S(=O)(=O)c2cncc(C#N)c2)C(F)(F)F)ccc1C(F)(F)F` [Example 269, (R)-5-cyano-N-methyl-N-(2,2,2-trifluoro-1-(3-methyl-4-(trifluoromethyl)phenyl)ethyl)pyridine-3-sulfonamide], the IC50 is 302 nM.

In the case of `Cc1cc([C@@H](N(C)S(=O)(=O)c2cncc(F)c2)C(F)(F)F)ccc1C(F)(F)F` [Example 270, (R)-5-fluoro-N-methyl-N-(2,2,2-trifluoro-1-(3-methyl-4-(trifluoromethyl)phenyl)ethyl)pyridine-3-sulfonamide], the IC50 is 490 nM.

As for `CCN([C@H](c1ccc(C(F)(F)F)c(C)c1)C(F)(F)F)S(=O)(=O)c1cncc(F)c1` [Example 271, (R)—N-ethyl-5-fluoro-N-(2,2,2-trifluoro-1-(3-methyl-4-(trifluoromethyl)phenyl)ethyl)pyridine-3-sulfonamide], the IC50 was 162 nM.

Take `CN([C@@H](c1ccc(F)cc1)C(F)(F)F)S(=O)(=O)c1cncc(C#N)c1` [Example 273, (S)-5-Cyano-N-methyl-N-(2,2,2-trifluoro-1-(4-fluorophenyl)ethyl)pyridine-3-sulfonamide]: the IC50 was 1480 nM.

With `CN([C@H](c1ccc(F)cc1)C(F)(F)F)S(=O)(=O)c1cncc(C#N)c1` [Example 274, (R)-5-Cyano-N-methyl-N-(2,2,2-trifluoro-1-(4-fluorophenyl)ethyl)pyridine-3-sulfonamide], the IC50 was 100 nM.

Source of the values: patent US20250115569A1, “SULFONAMIDE COMPOUNDS FOR THE TREATMENT OF NEUROLOGICAL CONDITIONS” (LARIO THERAPEUTICS LIMITED, priority 2021, published 2025).
